Experimental findings from patent US20250340563A1, “FUSED PYRIDAZINE DERIVATIVES AS NLRP3 INHIBITORS” (Takeda Pharmaceutical Company Limited, priority 2022, published 2025) are described below.

SMILES strings stand for the structures.

One test has as its target NLRP3 inflammasome (Homo sapiens, UniProt Q96P20). In words: IL-1β assay in IFN-γ-differentiated, LPS-primed, ATP-activated THP-1 cells (ELISA). The format is cell-based. The note with it: 50 ng/mL LPS priming, 2.5 mM ATP activation, 2 hours. An outline of the steps: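 Supernatant IL-1β is quantified by ELISA after 2 h of 2.5 mM ATP stimulation at 37 °C, with IC50 taken from a four-parameter fit of % inhibition. Before this, THP-1 macrophages (25 ng/mL IFN-γ, 24 h) were LPS-primed (50 ng/mL, 24 h, no FBS) and exposed to serially diluted compound for 30 min.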

The test system of a further test is NF-κB pathway. Nature of the test: TNF-α assay in IFN-γ-differentiated, LPS-stimulated THP-1 cells (ELISA). The format is cell-based. The note with it: Homo sapiens, 50 ng/mL LPS, 3 hours. As for the experimental part:
Monocytic THP-1 cells (ATCC: TIB-202) are maintained in accordance with the provider's instructions in RPMI media (Life Technologies, Cat #A10491-01); RPMI is supplemented with 10% heat inactivated fetal bovine serum (Hyclone Cat #SH30396.03). The cells are differentiated into macrophages by the addition of 25 ng/mL IFN-γ for 24 hours at 37° C./5% CO2. Media is exchanged with fresh media with no FBS. The cells are plated at 40,000 cells per well in 384-well flat-bottom cell culture plates (Costar 3764) containing compounds (added in 1:1000) in a 1:3.16 serial dilution series in DMSO and are incubated for 30 minutes at 37° C./5% CO2. The NF-κB pathway is activated with the addition of 50 ng/mL LPS and the cells are incubated for 3 hours at 37° C./5% CO2. At the end of the incubation period, supernatant (40 μL) is removed, and […] are monitored using an ELISA (Human TNF-α ELISA, R&D systems, Cat #DY210) according to the manufacturer's instructions.
The IC50 values are calculated from a plot of percentage of inhibition versus the inhibitor concentration by a logistics curve fit according to: Y=[Bottom+(Top−Bottom)]/(1+10^[(Log IC50−X)·Hill Slope], where Y is the % inhibition at the inhibitor concentration, X, “Bottom” is the lowest inhibition value, i.e. 0%, “Top” is the maximum inhibition value, i.e. 100%, and the “Hill Slope” describes the slope of the sigmoidal curve between the “Bottom” and “Top” values. The curve fitting was conducted with internally developed software.
(In general: In an ELISA, binding on a coated surface is turned into a signal by an enzyme label.)

NLRP3 inflammasome, sequence (Q96P20 whole entry): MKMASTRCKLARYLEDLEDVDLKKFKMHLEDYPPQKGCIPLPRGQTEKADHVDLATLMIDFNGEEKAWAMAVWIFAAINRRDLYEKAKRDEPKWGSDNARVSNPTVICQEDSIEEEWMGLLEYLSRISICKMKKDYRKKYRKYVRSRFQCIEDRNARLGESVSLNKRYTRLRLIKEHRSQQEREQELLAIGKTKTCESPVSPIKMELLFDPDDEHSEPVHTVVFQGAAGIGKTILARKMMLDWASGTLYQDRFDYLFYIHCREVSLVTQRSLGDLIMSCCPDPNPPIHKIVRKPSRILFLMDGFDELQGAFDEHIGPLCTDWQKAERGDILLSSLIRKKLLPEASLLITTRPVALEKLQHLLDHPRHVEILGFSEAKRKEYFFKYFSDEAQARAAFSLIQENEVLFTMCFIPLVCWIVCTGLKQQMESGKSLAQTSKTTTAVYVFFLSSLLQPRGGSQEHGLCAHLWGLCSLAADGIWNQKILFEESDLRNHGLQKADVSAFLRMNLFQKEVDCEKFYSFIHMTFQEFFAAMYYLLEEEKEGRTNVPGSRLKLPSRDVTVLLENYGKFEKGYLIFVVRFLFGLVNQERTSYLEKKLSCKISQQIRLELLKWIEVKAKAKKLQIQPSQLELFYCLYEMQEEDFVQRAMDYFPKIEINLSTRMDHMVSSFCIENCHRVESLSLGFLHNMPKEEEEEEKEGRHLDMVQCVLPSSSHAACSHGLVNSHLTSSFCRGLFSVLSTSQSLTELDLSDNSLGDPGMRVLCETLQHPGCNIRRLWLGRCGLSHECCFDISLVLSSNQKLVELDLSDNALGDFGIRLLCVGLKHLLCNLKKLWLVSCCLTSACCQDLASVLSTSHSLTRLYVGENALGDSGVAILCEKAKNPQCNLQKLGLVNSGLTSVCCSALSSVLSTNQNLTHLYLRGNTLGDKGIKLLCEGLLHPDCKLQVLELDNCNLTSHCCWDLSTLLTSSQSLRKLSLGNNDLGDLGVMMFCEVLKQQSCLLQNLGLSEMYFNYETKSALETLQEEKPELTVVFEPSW

In general, IC50 refers to the concentration needed to halve the response being measured. A low value points to greater potency in that assay. For `CN1CCC[C@@H](Nc2nnc(-c3ccc(Cl)cc3)c3cnccc23)C1` [Example 67, (R)-4-(4-chlorophenyl)-N-(1-methylpiperidin-3-yl)pyrido[3,4-d]pyridazin-1-amine], the IC50 against NLRP3 inflammasome is 552 nM; with NF-κB pathway, more than 30000 nM.
`CN1CC2CC2(Nc2nnc(-c3ccc(Cl)cc3)c3ccccc23)C1` (centres unmarked) [Example 152, 4-(4-chlorophenyl)-N-(3-methyl-3-azabicyclo[3.1.0]hexan-1-yl)phthalazin-1-amine]: the IC50 against NLRP3 inflammasome is 490 nM; in the test on NF-κB pathway, more than 30000 nM.
The matching figures for `Oc1cc(Cl)ccc1-c1nnc(N[C@@H]2CCCN(CCF)C2)c2cnccc12` [Example 85, (R)-5-chloro-2-(4-((1-(2-fluoroethyl)piperidin-3-yl)amino)pyrido[3,4-d]pyridazin-1-yl)phenol]: 2 nM and more than 30000 nM.
For `CCN1CCCC(Nc2nnc(-c3ccc(Cl)cc3)c3ccccc23)C1` (centres unmarked) [Example 162, 4-(4-chlorophenyl)-N-(1-ethylpiperidin-3-yl)phthalazin-1-amine], the IC50 against NLRP3 inflammasome is 18 nM; in the test on NF-κB pathway, more than 30000 nM.
Take `COc1ccc(-c2nnc(N[C@@H]3C[C@@H](F)CN(C)C3)c3ccccc23)c(F)c1` [Example 178, N-((3R,5R)-5-fluoro-1-methylpiperidin-3-yl)-4-(2-fluoro-4-methoxyphenyl)phthalazin-1-amine]: the results for the IC50 against NLRP3 inflammasome and in the test with NF-κB pathway were 81 nM and more than 30000 nM, respectively.
As for `COc1ccc(-c2nnc(N[C@@H]3CCCN(C)C3)c3c(C)cccc23)cc1` [Example 56, (R)-4-(4-methoxyphenyl)-8-methyl-N-(1-methylpiperidin-3-yl)phthalazin-1-amine], the IC50 was 72 nM against NLRP3 inflammasome and more than 30000 nM with NF-κB pathway.
`Clc1ccc(-c2nnc(NC3CCCN(C4CC4)C3)c3ccccc23)cc1` (centres unmarked) [Example 144, 4-(4-chlorophenyl)-N-(1-cyclopropylpiperidin-3-yl)phthalazin-1-amine]: the IC50 at NLRP3 inflammasome is 43 nM; in the test with NF-κB pathway, more than 30000 nM.
Take `CN1C[C@H](F)C[C@@H](Nc2nnc(-c3ccc(Cl)cc3F)c3ccncc23)C1` [Example 184, 1-(4-chloro-2-fluorophenyl)-N-((3R,5R)-5-fluoro-1-methylpiperidin-3-yl)pyrido[3,4-d]pyridazin-4-amine]: the results for the IC50 on NLRP3 inflammasome and in the test on NF-κB pathway were 152 nM and more than 30000 nM, respectively.
Consider `Cc1nccc2c(-c3ccc(Cl)cc3)nnc(NC3CCCN(C)C3)c12` (centres unmarked) [Example 76, 1-(4-chlorophenyl)-5-methyl-N-(1-methylpiperidin-3-yl)pyrido[3,4-d]pyridazin-4-amine], for which the IC50 at NLRP3 inflammasome was 178 nM; with NF-κB pathway it was more than 30000 nM.
The matching figures for `CCN1C[C@H](F)C[C@@H](Nc2nnc(-c3ccc(OC)cc3)c3ccncc23)C1` [Example 195, N-((3R,5R)-1-ethyl-5-fluoropiperidin-3-yl)-1-(4-methoxyphenyl)pyrido[3,4-d]pyridazin-4-amine]: 113 nM and more than 30000 nM.
As for `Cc1ccc(-c2nnc(N[C@@H]3CCCN(C)C3)c3cnccc23)cc1` [Example 30, (R)—N-(1-methylpiperidin-3-yl)-1-(p-tolyl)pyrido[3,4-d]pyridazin-4-amine], the figures for the IC50 against NLRP3 inflammasome and in the test on NF-κB pathway were 97 nM and more than 30000 nM, respectively.
On to `Clc1ccc(-c2nnc(NC3CCCN(Cc4ccccc4)C3)c3ccccc23)cc1` (centres unmarked) [Example 155, N-(1-benzylpiperidin-3-yl)-4-(4-chlorophenyl)phthalazin-1-amine], for which the results for the IC50 against NLRP3 inflammasome and in the test with NF-κB pathway were 66 nM and 23400 nM, respectively.
Turning to `COc1ccc(-c2nnc(N[C@@H]3CCCN(CCF)C3)c3cnccc23)c(F)c1` [Example 87, (R)-1-(2-fluoro-4-methoxyphenyl)-N-(1-(2-fluoroethyl)piperidin-3-yl)pyrido[3,4-d]pyridazin-4-amine], the IC50 against NLRP3 inflammasome is 33 nM; in the test on NF-κB pathway, more than 30000 nM.
Regarding `CN1C[C@H](F)C[C@@H](Nc2nnc(-c3ccc(OC(F)(F)F)cc3F)c3c2CCOC3)C1` [Example 214, N-((3R,5R)-5-fluoro-1-methylpiperidin-3-yl)-4-(2-fluoro-4-(trifluoromethoxy)phenyl)-7,8-dihydro-5H-pyrano[3,4-d]pyridazin-1-amine], the IC50 was 556 nM on NLRP3 inflammasome and more than 30000 nM in the test with NF-κB pathway.
Take `CN1CCCC(Nc2nnc(-c3ccc(Cl)cc3)c3ccccc23)C1=O` (centres unmarked) [Example 111, 3-((4-(4-chlorophenyl)phthalazin-1-yl)amino)-1-methylpiperidin-2-one]: the results for the IC50 against NLRP3 inflammasome and in the test on NF-κB pathway were 3780 nM and more than 30000 nM, respectively.
For `COc1ccc(-c2nnc(N[C@@H]3CCCN(C4CC4)C3)c3cnccc23)cc1` [Example 169, (R)—N-(1-cyclopropylpiperidin-3-yl)-1-(4-methoxyphenyl)pyrido[3,4-d]pyridazin-4-amine], the IC50 against NLRP3 inflammasome is 7 nM; in the test with NF-κB pathway, more than 30000 nM.
The matching figures for `COc1ccc(-c2nnc(NC3CCCN(C)C3)c3ccccc23)cc1` (centres unmarked) [Example 123, 4-(4-methoxyphenyl)-N-(1-methylpiperidin-3-yl)phthalazin-1-amine]: 276 nM and more than 30000 nM.
Take `CN1C[C@H](F)C[C@@H](Nc2nnc(-c3ccc(Cl)cc3)c3ccncc23)C1` [Example 189, 1-(4-chlorophenyl)-N-((3R,5R)-5-fluoro-1-methylpiperidin-3-yl)pyrido[3,4-d]pyridazin-4-amine]: the IC50 is 110 nM on NLRP3 inflammasome and more than 30000 nM with NF-κB pathway.
With `COc1ccc(-c2nnc(N[C@@H]3CCCN(C)C3)c3c2CCOC3)cc1` [Example 222, (R)-1-(4-methoxyphenyl)-N-(1-methylpiperidin-3-yl)-7,8-dihydro-5H-pyrano[3,4-d]pyridazin-4-amine], the IC50 at NLRP3 inflammasome is 49 nM; with NF-κB pathway, more than 30000 nM.
Regarding `Clc1ccc(-c2nnc(Nc3ccccc3)c3ccccc23)cc1` [Example 153, 4-(4-chlorophenyl)-N-phenylphthalazin-1-amine], the values for the IC50 at NLRP3 inflammasome and in the test with NF-κB pathway were 2260 nM and more than 30000 nM, respectively.
The matching figures for `CN1CCCC(Nc2nnc(-c3ccc(C(F)F)cc3)c3ccccc23)C1` (centres unmarked) [Example 21, 4-(4-(difluoromethyl)phenyl)-N-(1-methylpiperidin-3-yl)phthalazin-1-amine]: 75 nM and more than 30000 nM.
As to `CN1CCC[C@@H](Nc2nnc(-c3ccccc3O)c3ccncc23)C1` [Example 28, (R)-2-(4-((1-methylpiperidin-3-yl)amino)pyrido[3,4-d]pyridazin-1-yl)phenol], the values for the IC50 at NLRP3 inflammasome and in the test on NF-κB pathway were 8 nM and more than 30000 nM, respectively.
In the case of `Oc1cc(Cl)ccc1-c1nnc(N[C@@H]2CCCN(CCF)C2)c2ccccc12` [Example 59, (R)-5-chloro-2-(4-((1-(2-fluoroethyl)piperidin-3-yl)amino)phthalazin-1-yl)phenol], the IC50 on NLRP3 inflammasome was 2 nM; in the test on NF-κB pathway, more than 30000 nM.
Regarding `COc1ccc(-c2nnc(N[C@@H]3C[C@@H](F)CN(C)C3)c3c2CCOC3)c(F)c1` [Example 215, N-((3R,5R)-5-fluoro-1-methylpiperidin-3-yl)-1-(2-fluoro-4-methoxyphenyl)-7,8-dihydro-5H-pyrano[3,4-d]pyridazin-4-amine], the IC50 at NLRP3 inflammasome is 160 nM; with NF-κB pathway, more than 30000 nM.
As to `COc1ccc(-c2nnc(N[C@@H]3CCCN(C)C3)c3ccnc(C)c23)c(O)c1` [Example 79, (R)-5-methoxy-2-(5-methyl-1-((1-methylpiperidin-3-yl)amino)pyrido[3,4-d]pyridazin-4-yl)phenol], the IC50 against NLRP3 inflammasome is 5 nM; with NF-κB pathway it was 24300 nM.
